Patent EP1837033A1, “REMEDY FOR DIABETES CONTAINING Cdk5 INHIBITOR” (Tomizawa, Kazuhito, priority 2004, dated 2006)

What was measured:
Cdk5 = Cdk5 (Homo sapiens, UniProt Q00535); conditions: cited from earlier work
islets of Langerhans = experiment: Insulin secretion from isolated islets of Langerhans; assay type: cell-based, rats; conditions: for insulin secretion: 10 µM, Ringer solution with a high glucose concentration, fig. 4; for insulin secretion in islets of Langerhans (insulin secretion percentage): low glucose 3.3 mM, 200 nM glibenclamide, 10 µM olomoucine, fig. 5
Protocol: In accordance with Goto et al. (Transplantaion, vol. 43, pp. 725 to 730, 1987), islets of Langerhans were isolated from 6-week-old male Wister rats. The rats were etherized so as to be subjected to thoracotomy. The common bile duct of each rat was removed and a collagenase solution (320 U/ml, Sigma) was slowly injected into the pancreas. Then, the swollen pancreas was excised. The collagenase-containing pancreas was digested at 37°C in a water bath for 30 minutes, followed by dispersion with the use of a pipet. Thereafter, islets of Langerhans were isolated based on the concentration gradient of a Ficoll solution (Amersham Pharmacia). The islets of Langerhans were incubated while being kept at 37°C for 30 minutes in a Ringer solution (119 mM sodium chloride, 4.74 mM potassium chloride, 1.19 mM sodium dihydrogen phosphate, 25 mM sodium bicarbonate, 10 mM HEPES, 2.54 mM calcium chloride, 1.19 mM magnesium chloride, and 0.2% BSA) saturated with a mixed gas of 95% O2 and 5% CO2.
30 minutes after replacement, insulin contained in each stimulation solution was detected using an insulin detection kit (Ab Bead Insulin, Eiken Chemical Co., Ltd.) in accordance with protocols of the kit. The experiment was conducted for each concentration group (n = 6).
30 minutes after replacement, insulin contained in each stimulation solution was using an insulin detection kit (Ab Bead Insulin, Eiken Chemical Co., Ltd.) in accordance with protocols for the kit.
Then, controls (n = 6), samples A (n = 6), samples B (n = 6), and samples C (n = 6) were prepared. […] Further, islets of Langerhans were subjected to ultrasonication for cell disruption, and insulin contents of islets of Langerhans were detected using an insulin detection kit (Ab Bead Insulin, Eiken Chemical Co., Ltd.) in accordance with protocols for the kit in a manner similar to that used above.
In addition, the insulin secretion percentage was calculated by the following formula. Insulin secretion percentage; = (Amount of insulin secreted(μU/ml))/(Amount of insulin in islets of Langerhans(μU/ml)) × 100(%) [formula]

MIN6 cells [1] = experiment: Insulin secretion of MIN6 cells in KRB, radioimmunoassay (Example 4); assay type: cell-based, rat; conditions: for high-glucose-stimulated insulin secretion: preincubated 30 minutes, stimulated 1 hour with 16.7 mM glucose
MIN6 cells [2] = experiment: Insulin secretion of MIN6 cells in Ringer solution (Example 3); assay type: cell-based, rat; conditions: 17.6 mM glucose, 20 µM, 2 hours, fig. 3
Protocol: MIN6 cells capable of secreting insulin (provided by Professor Susumu Seino, Doctral Program in Advanced Biomedical Applications, Department of Cellular and Molecular Medicine, Graduate School of Medicine, Chiba University, 1-33, Yayoi-cho, Inage-ku, Chiba-shi, Chiba, Japan) were cultured in accordance with the method of Mae et al. (American Journal of Physiological Endocrinal Metabolism, 2000, vol. […], pp. 773 to 781). MIN6 cells (5 × 10^5) were in a DMEM medium (GIBCO) and on a 35-mm culture dish (Corning Incorporated), followed by culture for 2 days in an incubator (5% CO2, SANYO).
After culture for 2 hours, insulin contained in medium was detected using an insulin detection kit (Ab Insulin, Eiken Chemical Co., Ltd.) in accordance with protocols for the kit.

[3] = system: diabetes mouse models KK-Ay; experiment: Hypoglycemic effects in diabetes mouse models KK-Ay; assay type: in vivo; conditions: KK-Ay mice, fig. 13
Protocol: 8-week-old ale KK-Ay mice (32 individuals, CLEA Japan, Inc.) were divided into groups (8 individuals each) with the proviso that there would be no differences among groups in terms of blood glucose levels, Hypoglycemic effects of roscovitine (LC Laboratories), which is a CDK5 inhibitor, were examined.
In order to prepare roscovitine at doses of 1 mg/kg, 10 mg/kg, and 100 mg/kg, a suspension (0.5% methylcellulose/physiological saline solution) was used. Then, subcutaneous administration of roscovitine was carried out once daily for 2 consecutive weeks. A solvent alone was administered to a control group. Blood glucose levels were measured one day before day 0 and on days 3, 7, 10, and 14 with the use of a blood glucose monitor (Free Style, NIPRO).
In fig. 13, the unit of the vertical axis is indicated by "mg/dL." In fig. 14, the unit of the vertical axis is indicated by "g."

MIN6 cells [4] = experiment: Ca2+ imaging (fura-2) in MIN6 cells; assay type: cell-based, rat; conditions: 50 µM olomoucine
Protocol: MIN6 cells were cultured in a DMEM containing 15% fetal bovine serum, 25 mM glucose, […] 2-mercaptoethanol, and 2 mM glutamine (Lilla, V. et al. Endocrinology 144, 1368-1379 (2003); and Minami, K. et al. Am. J. Physiol. Endocrinol. Metab. 279, 773-781 (2000)). The cells (1 × 10^6) were seeded on a 35-mm glass bottom dish (IWAKI, Tokyo, Japan), followed by cell proliferation for 48 hours. For Ca^2+ imaging, the cells were preincubated at 37°C for 2 hours in a modified Krebs-Ringer bicarbonate HEPES buffer solution (KRB: 125 mM Nacl, 4.74 mM KCl, 1 mM CaCl2, […] KH2PO4, 5 mM NaHCO3, 25 mM HEPES (pH 7.4), and 0.1% BSA) containing 2.8 mM glucose. […] The resulting solution was replaced with KRB containing 17.6 mM glucose or KRB containing 100 nM glibenclamide. The Ca^2+ level of the cells was using an Axiovert 200 inverted microscope (Carl Zeiss Microlmaging) by a dual excitation wavelength method (340/380).
After washing, the cells were stimulated with 17.6 mM glucose (figs. 7a-1 and 7a-2) or 100 nM glibenclamide (figs. 7b-1 and 7b-2). Ca^2+ concentrations were presented as percentages of 340/380 nm fluorescent emission. The graphs (fgs. 7a-1 and 7b-1) show representative traces of changes in Ca^2+ concentration. The graphs (figs. 7a-2 and 7b-2) show the maximum Ca^2+ influxes. Data for each of 20 to 30 cells were collected after each experiment. The mean value of the total values was calculated and normalized every 3 to 4 experiments (*P < 0.01).

L-VDCC = experiment: Whole-cell Ca2+ currents via VDCCs of MIN6 cells (electrophysiology); assay type: cell-based, rat; conditions: 50 µM olomoucine
[5] = system: α1C subunit at Ser783 of L-VDCC; experiment: Phosphorylation of Ser783 of the L-VDCC α1C subunit in MIN6 cells (immunoprecipitation, Western blotting); assay type: cell-based, rat; conditions: MIN6 cells treated with 50 µM olomoucine, fig. 8d
Protocol: Recombinant cDNA encoding LoopII·III of a human α1C subunit of VDCC was subcloned into pGEX6P (Amersham Bioscience). Serine783 was mutated into alanine according to the manufacturer's instructions (Stratagene). Purified recombinant proteins were phosphorylated in vitro with the use of Cdk5/p35 (Upstate) by a conventional method (Tomizawa, K. et al. J. Cell. Biol. 163, 813-824 (2003)). […] The expression of the phosphorylated α1C subunit at Ser783 was measured using phosphorylation-specific antibodies obtained from serum of a rabbit to which CLARTApSPEKK peptide had been injected. The total amount of the subunits was detected by Western blotting analysis with the use of anti-α1C subunit antibodies (Chemicon).
Immunoprecipitation of Cav1.2 was carried out. Phosphorylation of serine 783 was measured by Western blotting.

Sequence of Cdk5 (Q00535 whole entry, species assumed): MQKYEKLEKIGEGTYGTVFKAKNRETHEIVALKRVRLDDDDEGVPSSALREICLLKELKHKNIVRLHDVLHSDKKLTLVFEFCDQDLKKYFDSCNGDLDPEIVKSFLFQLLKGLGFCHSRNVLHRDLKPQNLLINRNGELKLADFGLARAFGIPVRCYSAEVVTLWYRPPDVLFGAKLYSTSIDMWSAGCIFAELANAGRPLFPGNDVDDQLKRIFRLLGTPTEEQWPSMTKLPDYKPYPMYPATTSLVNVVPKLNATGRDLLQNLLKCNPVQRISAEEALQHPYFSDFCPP
Sequence of Cdk5 (Q15078 whole entry partner, species assumed): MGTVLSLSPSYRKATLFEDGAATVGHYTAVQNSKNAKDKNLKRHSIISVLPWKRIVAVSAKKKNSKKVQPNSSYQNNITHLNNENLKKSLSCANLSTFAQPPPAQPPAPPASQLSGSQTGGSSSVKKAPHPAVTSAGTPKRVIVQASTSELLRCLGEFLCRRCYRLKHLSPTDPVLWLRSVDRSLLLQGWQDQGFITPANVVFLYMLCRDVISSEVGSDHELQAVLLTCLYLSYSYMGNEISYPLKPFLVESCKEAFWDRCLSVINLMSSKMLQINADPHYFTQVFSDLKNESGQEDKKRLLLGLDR

iso-olomoucine
Cdk5 inhibitory effect (Cdk5): does not have a Cdk5 inhibitory effect
insulin secretion (islets of Langerhans): did not promote insulin secretion at all
insulin secretion (MIN6 cells [1]; 20 µM, fig. 6d): did not influence insulin secretion

C=C[C@@]1(C)CC(=O)[C@]2(O)[C@@]3(C)[C@@H](O)CCC(C)(C)[C@@H]3[C@H](O)[C@H](OC(C)=O)[C@@]2(C)O1 [forskolin]
forskolin-stimulated insulin secretion (MIN6 cells [1]; 10 µM forskolin, 50 µM olomoucine, KRB 2.8 mM glucose, fig. 6h, unit not given): 122.7 ± 9.3

CC[C@H](CO)Nc1nc(NCc2ccccc2)c2ncn(C(C)C)c2n1 [roscovitine]
insulin secretion of MIN6 cells (MIN6 cells [2]): promoted
blood glucose levels ([3]; 1 mg/kg subcutaneous once daily for 2 consecutive weeks): obvious hypoglycemic effects were not observed
blood glucose levels ([3]; 10 mg/kg subcutaneous once daily for 2 consecutive weeks): obvious hypoglycemic effects were not observed
blood glucose levels ([3]; 100 mg/kg subcutaneous once daily for 2 consecutive weeks): statistically significant decreases
high-glucose-stimulated insulin secretion (MIN6 cells [1]; fig. 6c): also confirmed

Cn1cnc2c(NCc3ccccc3)nc(NCCO)nc21 [olomoucine]
Ca2+ influxes in the absence of glucose and glibenclamide (MIN6 cells [4]): did not influence
Ca2+ influxes induced by glibenclamide (MIN6 cells [4]; 100 nM glibenclamide, maximum Ca2+ influx normalized, figs. 7b-1 and 7b-2): 129 ± 4.5%
Ca2+ influxes induced by glucose (MIN6 cells [4]; 17.6 mM glucose, maximum Ca2+ influx normalized, figs. 7a-1 and 7a-2): 114.4 ± 2.1%
Peak Ca2+ currents (L-VDCC; depolarization to 10 mV, control cells -15.1 ± 1.67 A/F): -20.1 ± 1.59 A/F
inward Ca2+ currents (L-VDCC; step pulses from -40 mV to +60 mV, fig. 7c): enhanced inward Ca^2+ currents
phosphorylation of Ser783 [5]: decrease in phosphorylation
insulin secretion of MIN6 cells (MIN6 cells [2]): action of promoting insulin secretion
insulin secretion (islets of Langerhans): significantly promoted insulin secretion
insulin secretion of islets of Langerhans (islets of Langerhans; 3.3 mM glucose (low), olomoucine at different concentrations, 30 minutes, fig. 1): had no influence at all
insulin secretion levels (islets of Langerhans; 17.3 mM glucose (high), olomoucine at different concentrations, 30 minutes, versus absence of olomoucine, fig. 2): significantly increased
secretion at low glucose levels (islets of Langerhans; isolated islets of Langerhans, fig. 9a): did not influence
insulin secretion in islets of Langerhans (insulin secretion percentage) (islets of Langerhans; 30 minutes): did not influence insulin secretion
glucose-stimulated insulin secretion in isolated islets of Langerhans (islets of Langerhans; olomoucine at concentrations shown in fig. 9a): promoted glucose-stimulated insulin secretion in a dose-dependent manner
insulin secretion under low glucose conditions (MIN6 cells [1]; 2.8 mM glucose, 1 hour, fig. 6c): insulin secretion was not promoted
insulin secretion induced by forskolin (MIN6 cells [1]; effect of 50 µM olomoucine, 10 µM forskolin, 2.8 mM glucose, P > 0.05, fig. 6h): did not influence
insulin secretion induced by glibenclamide (MIN6 cells [1]; effect of olomoucine, low glucose 2.8 mM, fig. 6e): significantly promoted
high-glucose-stimulated insulin secretion (MIN6 cells [1]; fig. 6c): promoted high-glucose-stimulated insulin secretion in a dose-dependent manner

CC1=NS(=O)(=O)c2cc(Cl)ccc2N1 [diazoxide]
Olomoucine-dependant promotion of high-glucose-stimulated insulin secretion (MIN6 cells [1]; 100 µM diazoxide, 50 µM olomoucine, 17.6 mM glucose, fig. 6g): completely suppressed

COc1ccc(Cl)cc1C(=O)NCCc1ccc(S(=O)(=O)NC(=O)NC2CCCCC2)cc1 [glibenclamide]
insulin secretion in islets of Langerhans (insulin secretion percentage) (islets of Langerhans; 30 minutes): significant increase in insulin secretion
insulin secretion (MIN6 cells [1]; KRB high glucose 17.6 mM, fig. 6f): 412.5 ± 35.7 µg/h
insulin secretion (MIN6 cells [1]; KRB low glucose 2.8 mM, fig. 6e): 116.3 ± 1.0 µg/h
